# Assay results taken from US6514994B2, “Levobupivacaine and its use” (Darwin Discovery, Ltd., priority 1997, dated 2003).
# Assays:
# [1] = system: conscious, previously instrumented, adult sheep; experiment: Electrocardiological effects of i.v. infusion in conscious sheep; assay type: in vivo; settings: for deaths: 150, 150 and 200 mg infused over 3 min, ventricular tachycardia and fibrillation; for convulsive dose (inducing ventricular arrhythmias): sheep, 3 min
# Method: The electrocardiological effects of bupivacaine and levobupivacaine were compared, in two groups of conscious, previously instrumented, adult sheep. Two cohorts of 7 animals were infused over 1 min with 6.25, 12.5, 18.75, 25 and 37.5 mg levobupivacaine and 12.5, 25 and 37.5 mg bupivacaine or over 3 min with 37.5, 50, 75, 100, 150 and 200 mg levobupivacaine and 37.5, 75, 100, 150 and 200 mg bupivacaine. […] Both drugs, at convulsive doses (75 mg bupivacaine, 100 mg levobupivacaine), induced ventricular arrhythmias; however, there was a higher threshold of toxicity with levobupivacaine. […] Inasmuch as levobupivacaine is reported to produce at least equivalent neural blockade to bupivacaine, it therefore offers a great margin of clinical safety.
# FIGS. 1 and 2 of the accompanying drawings show baseline record of ECG (left), S-T segment change (centre) and multiform ventricular tachycardia (right) after i.v. infusion (40 ml, 3 min) of 100 mg bupivacaine and then of 200 mg levobupivacaine, in the same sheep.
# [2] = system: Pentobarbital-Anesthetized Swine; experiment: Intracoronary (LAD) injection cardiotoxicity model, lethal dose and QRS prolongation; assay type: in vivo; settings: for lethal dose, median / lethal dose, range: LAD injection, death by VF; for lethal dose higher than that of B: injected into LAD or RCA
# Method: Reiz et al, Acta Anaesthesiol. Scand. (1989) 33:93-98, reports that in vivo cardiotoxicity of local anaesthetics can be evaluated without interference by central mechanisms in a highly reproducible model (Pentobarbital-Anesthetized Swine) where the drug is injected directly into a coronary artery. When local anesthetics are injected in the left anterior descending artery (LAD), death occurs consistently by ventricular fibrillation (VF). The aim of this study was to determine the lethal dose of each of the local anesthetics levobupivacaine (L), bupivacaine (B) and ropivacaine (R) as well as to compare their respective effects on the QRS interval of the precordial ECG.
# A total of 27 animals were randomized to receive a dose response injection of L, B or R into the LAD. A blinded randomized protocol was used. All calculations and exclusions were made prior to disclosure of treatment. The doses of each agent were 0.375, 0.75, 1.5, 3.0, 4.0 mg etc., in increments of 1 mg till death occurred. Each dose was made up in a volume of 3 ml plus the dead space of the catheter (1.2 ml), injected over 10 sec. The time between doses was 5 min, or longer, if ECG, blood pressure or heart rate had not returned to pre-injection controls. A complete 12-lead ECG was recorded on optical disk for later analysis. Statistical analysis was by ANOVA, Dunnett's and the Mann-Whitney-U test. Power analysis was performed (0.85 to 1.00).
# One animal died of myocardial infarction following acute embolization into the LAD. […] Of the animals injected into the LAD, 7 had received L, 7 B and 6 R. All deaths following LAD injection were by VF and deaths following RCA injection were by A-V dissociation. […] The difference between L and R at 50 msec prolongation was insignificant.
# [3] = system: patients undergoing major abdominal surgery; experiment: Epidural anaesthesia in patients undergoing major abdominal surgery; assay type: in vivo, human; settings: 0.75%
# Method: This study compared the efficacy, safety and pharmacokinetics of 0.75% levobupivacaine with 0.75% bupivacaine in 58 patients undergoing major abdominal surgery under epidural anaesthesia. Although 0.75% bupivacaine is no longer used in some situations (obstetrics) and 0.5% concentrations are usually adequate for lower extremity surgery, 0.75% is preferential for abdominal surgery because of the enhancement of motor blockade. Onset of sensory anaesthesia to T10 (mean˜15 minutes), time to peak block height (T5, 25-30 min), and abdominal muscle relaxation (RAM score 3-5) were equivalent between the groups. Duration of total sensory anaesthesia was statistically longer with 0.75% levobupivacaine (levobupivacaine—551 min, racemic bupivacaine—506 min).
# [4] = system: guinea-pig papillary muscle; experiment: Developed force and action potential parameters in papillary muscle; settings: for effect on developed force and action potential parameters at steady-state: equimolar concentrations
# Method: Contraction was measured in mycocytes and papillary muscle isolated from guinea-pig ventricle and pectinate muscle isolated from human right atrial appendage. Myocytes were isolated from guinea-pig left ventricle by an enzyme digestion procedure and placed in a chamber on the stage of an inverted microscope. Cells were superfused with Krebs-Henseleit buffer (KHB) at 30° C. and field stimulated at 1.0 Hz. Cell shortening was measured with a video camera and edge-etection system. Papillary and pectinate muscles were placed in KHB at 37° C. and field stimulated at 1.0 Hz. Isometric tension was recorded at maximum developed force (Lmax). Electrophysical parameters were recorded in papillary muscles superfused with KSB at 37° C. and stimulated at 1.0 Hz. Standard action potential parameters were recorded, i.e. maximum rate of rise of membrane potential (Vmax); action potential amplitude (APA); and action potential duration to 90% repolarisation (APD90). Developed force was measured by recording isometric tension in muscles stretched to 90% of Lmax.
# [5] = system: adult patients, axillary brachial plexus; settings: by comparison; cited from earlier work
# [6] = system: myocytes isolated from guinea-pig left ventricle; experiment: Cell shortening (contraction) in isolated ventricular myocytes; assay type: cell-based; settings: cardiac myocytes, P<0.05
# Method: Contraction was measured in mycocytes and papillary muscle isolated from guinea-pig ventricle and pectinate muscle isolated from human right atrial appendage.
# Myocytes were isolated from guinea-pig left ventricle by an enzyme digestion procedure and placed in a chamber on the stage of an inverted microscope. Cells were superfused with Krebs-Henseleit buffer (KHB) at 30° C. and field stimulated at 1.0 Hz. Cell shortening was measured with a video camera and edge-etection system. Papillary and pectinate muscles were placed in KHB at 37° C. and field stimulated at 1.0 Hz. Isometric tension was recorded at maximum developed force (Lmax).
# The mean drug concentration producing a 50% reduction (CI-50) in cell shortening was calculated from cumulative dose-response curves. All data were analysed by an unpaired t-test (for control data comparison) or one-way ANOVA (for comparison between drug groups), assuming a Gaussian distribution.
# [7] = system: adult patients, axillary brachial plexus; experiment: Axillary brachial plexus neural blockade in patients with distal upper extremity orthopaedic surgery; assay type: in vivo, human
# Method: 20 adult patients scheduled for distal upper extremity orthopaedic surgical procedures with axillary brachial plexus neural blockade were studied. Patients received an axillaryblock using 50 ml of 0.5% levobupivacaine without epinephrine. Transarterial and/or nerve stimulator techniques were used to identify injection into the brachial plexus sheath. If after 10 min patients required supplemental local anaesthetic to produce anaesthesia in a single peripheral nerve distribution, an additional 10 ml of 0.5% levobupivacaine could be administered as a single peripheral nerve-block at the axilla or wrist. Patients were monitored for onset and duration of sensory and motor block using a 0-2 scale (0=no block, 1=partial block, 2=complete block) for each major nerve distribution (median, musculocutaneous, radius, ulnar). Time to onset of adequate anaesthesia for surgery, time to first request for post-operative analgesics, as well as any subjective or objective signs of local anaesthetic toxicity were also collected. Blood samples for PK analysis were drawn from 10 patients.
# [8] = Plasma kinetics after administration (summary statement); assay type: in vivo
# sensory block = settings: 0.25%; cited from earlier work
structure (smiles),measurement,setting,value
CCCCN1CCCCC1C(=O)Nc1c(C)cccc1C (racemic) [bupivacaine],deaths,[1],Three animals died within 10 min
same,"potency in inducing an arrhythmia, relative to levobupivacaine","[1]; in vivo, iv",slightly more potent
same,"potency in sustaining the arrhythmia, relative to levobupivacaine","[1]; in vivo, iv",more than three times more potent
same,convulsive dose (inducing ventricular arrhythmias),"[1]; in vivo, iv",75 mg
same,"lethal dose, median",[2],5 mg
same,"lethal dose, range",[2],4 to 6 mg
same,duration of total sensory anaesthesia,[3],506 min
same,"onset of sensory anaesthesia to T10, mean",[3],~15 min
same,effect on developed force and action potential parameters at steady-state,[4],No significant differences
same,recommended dose,[5],2 mg/kg
"CCCCN1CCCC[C@H]1C(=O)Nc1c(C)cccc1C [levobupivacaine, (S)-1-butyl-N-(2,6-dimethylphenyl)-2-piperidinecarboxamide]",deaths,[1],No animals died
same,"ventricular arrhythmias induced, compared with the same doses of bupivacaine",[1]; in vivo,"Significantly fewer, as well as less deleterious"
same,convulsive dose (inducing ventricular arrhythmias),"[1]; in vivo, iv",100 mg
same,"lethal dose, median",[2],8 mg
same,"lethal dose, range",[2],7 to 9 mg
same,difference in dose vs B to obtain the same degree of QRS prolongation,[2]; at 40 msec QRS prolongation,25%
same,difference between L and R in dose for QRS prolongation,[2]; at 50 msec prolongation,insignificant
same,difference in dose vs B to obtain the same degree of QRS prolongation,[2]; at 90 msec QRS prolongation,47%
same,lethal dose higher than that of B,[2],approximately 50%
same,duration of total sensory anaesthesia,[3],551 min
same,"onset of sensory anaesthesia to T10, mean",[3],~15 min
same,"recovery of contractility on washout with drug-free perfusate, vs bupivacaine",[6],significantly greater
same,effect on developed force and action potential parameters at steady-state,[4],No significant differences
same,"recovery of contractility on washout with drug-free perfusate, vs bupivacaine","[4]; guinea-pig papillary muscle, P<0.05",significantly greater
same,"duration of sensory/motor block in at least two nerve distributions, range","[7]; 0.5%, 50-60 ml",14 to 24 h
same,mean duration of sensory/motor block in at least two nerve distributions,"[7]; 0.5%, 50-60 ml",20 h
same,sensory and motor blockade in all four peripheral nerve distributions immediately post-operatively,"[7]; 0.5%, 50-60 ml",All patients had complete sensory and motor blockade
same,time to request for supplemental analgesics,"[7]; 0.5%, 50-60 ml",15 h
same,"time to request for supplemental analgesics, range","[7]; 0.5%, 50-60 ml",9 to 24 h
same,patients requiring general anaesthesia due to inadequate sensory/motor block at 30 min post-injection,"[7]; 0.5%, 50-60 ml, 20 patients",2 patients
same,patients with adequate onset of sensory/motor blockade for surgical anaesthesia within 30 min,"[7]; 0.5%, 50-60 ml, 20 patients",18 patients
same,signs or symptoms of local anaesthetic toxicity,[7]; 3-5 mg/kg,No patient demonstated any subjective or objective signs or symptoms of local anaesthetic toxicity
same,well tolerated doses for axillary block,"[7]; axillary block, patients",3 to 5 mg/kg
same,time to reach Tmax compared with the same dose of racemate,[8]; in vivo,takes longer to reach Tmax
same,plasma clearance rate compared with bupivacaine,[8]; within 0-4 hours post-administration,faster plasma clearance rate
same,sensory block efficacy and duration compared with bupivacaine,sensory block,comparable efficacy to bupivacaine
"CCCN1CCCC[C@H]1C(=O)Nc1c(C)cccc1C [ropivacaine, reference compound]","lethal dose, median",[2],8 mg
same,"lethal dose, range",[2],4 to 10 mg
same,QRS prolongation,"[2]; at the 6 mg dose, 100% approximately 60 msec",≤ 100%
same,lethal dose higher than that of B,[2],approximately 50%
same,effect on developed force and action potential parameters at steady-state,[4],No significant differences
